In patent US20070142341A1, “Use of steroid derivatives for the treatment of angiotensin ll related disease e.g. cardiovascular and proliferative disorders” (priority 2003, published 2007):
One block for each compound: values may come before it.

Legend:
[1] = system: rat aortic smooth muscle cells (RASMC); test: 3H-methylthymidine incorporation into rat aortic smooth muscle cells stimulated with Ang II; format: cell-based; conditions: for Tritiated thymidine uptake / Effect on tritium incorporation induced by Ang II: 48 hours; for Tritiated thymidine uptake: serum-free medium, control 57.6, Ang II alone 87.1; for Effect on tritium incorporation induced by Ang II: Ang II 10^−7 M
From the text: (§1) Aortic smooth muscle cells (ASMCs) were isolated from rat thoracic and abdominal artery (RASMC) and bovine aorta (BASMC) by the media explant method and cultured over several passages.
(§2) Segments of both abdominal and thoracic aortas were obtained from rats by careful dissection from killed rats. Segments of aorta were obtained from calves under anaesthesia. The segments of aorta were placed in a depression slide containing tissue culture medium, after which the adventitia and the outer portion of each segment was carefully removed under a dissecting microscope. The remaining inner portion of the tissue and the intima were removed to a separate dissecting dish and washed several times with fresh culture medium. At this point each segment was cut into approximately 1 mm squares and placed on 25 cm^2 tissue culture flask. The flasks were loosely capped and placed in a humidified CO2 incubator After two hours, 4 ml of RPMI-1640 culture medium supplemented with 100 units/ml of penicillin, […] streptomycin, […] L-glutamine and 20% […] was carefully added to the flasks without dislodging the tissue. Samples were fed with fresh medium after one week. The cells from the explants were relatively confluent within a period of approximately 2 weeks. They were then rinsed with PBS, and subsequently trypsinized with a solution of 0.125% trypsin and 0.02% EDTA in PBS for 1-2 min al 37° C. The resulting suspension of cells was pipetted into 75 cm^2 tissue culture flasks containing 10 ml culture medium and incubated as above.
(§3) Experiments were performed with cells from passages 3 to 5.
^3H-methylthymidine incorporation into rat aortic smooth muscle cells (RASMC). Quiescent RASMC (0.3×10^5/ml/well) were incubated with serum-free medium (SFM) containing Ang II (10^−7 M) with or without different concentrations of trilostane for 48 hours. The results are shown in Table 1. ^3H-methylthymidine incorporation into RASMC was increased in the Ang II treated group.
Using the same tritiated thymidine uptake methodology as for Example 1, the actions of Losartan on angiotensin II-stimulated cell proliferation were tested in the presence and absence of trilostane.

myocardial injury = conditions: rat model, angiotensin-induced injury, treatment with eplerenone; cited from earlier work
[2] = system: LV dysfunction and remodeling; conditions: dogs with chronic heart failure, 3 months of treatment, cited from earlier work
[3] = system: severe congestive heart failure (CHF); conditions: patients with severe congestive heart failure, given in addition to ACE inhibitors; cited from earlier work
[4] = system: rat aortic smooth muscle cells (RASMC); test: Cell count for rat aortic smooth muscle cells stimulated with Ang II; format: cell-based; conditions: 48 hours; for Cell Count: 20% FBS RPMI-1640, control 12.00 × 10^4, Ang II alone 21.30 × 10^4; for Effect on Ang II stimulated increase in cell number: Ang II 10^−7 M
From the text: as §1, §2, §3
Cell count for rat aortic smooth muscle cells (RASMC). RASMC (0.5×10^5/ml/well) were incubated with 20% FBS RPMI-1640 medium containing Ang II (10^−7 M) with or without different concentrations of trilostane for 48 hours.

[5] = system: circulating adrenal steroids; test: Circulating plasma adrenal steroids in whole, healthy rats (radioimmunoassay, FIG. 1); format: in vivo, rat
Experimental: Trilostane has been used in treatments that are aimed at suppressing adrenal steroid secretion. Examples of adrenal steroids include cortisol, aldosterone and corticosterone. In practice, in patients with normally functioning adrenals, circulating adrenal steroids are reduced only at high trilostane dosage levels upwards of 8 to 10 mg/kg/day equivalent, and this is the regime most frequently used (Beardwell et al. 1985, Clin Endocrinol (Oxf), 23, 413-21, Engelhardt and Weber 1994, J Steroid Biochem Mol Biol, 40, 261-7). […] This can be shown by testing the levels of circulating adrenal steroids pre- and post-treatment and assessing whether or not the concentrations of adrenal steroids have been reduced. The levels of circulating adrenal steroids in the plasma can be tested by collecting circulating blood from a vein. Plasma is obtained by centrifugation and plasma steroid (for example, cortisol and aldesterone for humans, corticosterone and aldosterone in rats) is assayed using a conventional radioimmunoassay. Suitable corticosterone radioammunoassay kits are available from Amersham Biosciences UK Limited. Suitable aldosterone radioimmunoassay kits are available from Diagnostic Products Corporation.

[6] = system: circulating adrenal steroids; test: Circulating corticosterone and aldosterone in male Wistar rats after 5 days of trilostane (FIG. 3a, b); format: in vivo, rat; conditions: trilostane 4 mg/kg per day for 5 days, versus vehicle control
Experimental: Male Wistar rats (˜500 g) were treated with 0.1 ml ethanol in cotton seed oil with trilostane 4 mg/kg per day for 5 days. Control animals received the vehicle alone. Animals were then treated with 0.1 ml (500 u) heparin IP, before killing by stunning and cervical dislocation. Blood was collected from neck vessels, centrifuged to obtain plasma which was stored at −20° C. until required for steroid analysis. Corticosterone and aldosterone concentrations were assayed using commercially available kits (Diagnostic Systems Laboratories Inc., Webster, Tex., USA). Circulating concentrations of corticosterone (FIG. 3 (a)) and aldosterone (FIG. 3(b)) are shown for control animals and animals receiving trilostane treatment.

[7] = system: vascular smooth muscle cells; test: Fura-2 [Ca2+]i signal response to angiotensin II in smooth muscle cells cultured from trilostane treated rats; format: cell-based, rat; design: key: + = calcium response; − = no response; conditions: cells (TTSMC) from rats given trilostane 4 mg/kg per day for 5 days
Experimental: Male Wistar rats (˜500 g) were treated with 0.1 ml ethanol in cotton seed oil with trilostane 4 mg/kg per day for 5 days. Control animals received the vehicle alone. Animals were then treated with 0.1 ml (500 u) heparin IP, before killing by stunning and cervical dislocation. Blood was collected from neck vessels, centrifuged to obtain plasma which was stored at −20° C. until required for steroid analysis. Corticosterone and aldosterone concentrations were assayed using commercially available kits (Diagnostic Systems Laboratories Inc., Webster, Tex., USA). Circulating concentrations of corticosterone (FIG. 3 (a)) and aldosterone (FIG. 3(b)) are shown for control animals and animals receiving trilostane treatment. […] Primary cultures were established of RASMC obtained from trilostane treated and control animals, using the established methods. For [Ca^2+]i measurement, the cells were loaded with 1 μM fura-2 for 30 min in medium-modified Krebs-Ringer bicarbonate solution (3.6 mM K^+, 1.2 mM Ca^2+, 0.5 mM Mg^2+, 5 mM Hepes and 20 mM HCO^−) at 37° C. For simultaneous measurements of measuring the fluorescence of fura-2, the cells plated on coverslips were mounted on the stage of an inverted microscope (Zeiss) in a modified Krebs-Ringer bicarbonate solution. The excitation wavelengths were 340 and 380 nm, and emission was detected at 510 nm. [Ca^2+]i was calculated from the ratio of fluorescence intensities at excitation wavelengths of 340 and 380 nm. Fields of cells, ˜10 cells per field, were tested from control and trilostane treated animals. The results are shown in Table 3 and FIGS. (c) and (d) wherein the arrow indicates the time of application of angiotensin II. Characteristic calcium signals obtained by stimulation of vascular smooth muscle cells from control animals (FIG. 3(c)) and trilostane treated animals (FIG. 3(d)) by 10 nmol/L angiotensin II.

AT1 receptor mRNA = AT1 receptor mRNA expression by RT-PCR and real-time quantitative RT-PCR in RASMC (FIG. 4); format: cell-based, rat; conditions: 48 hours, trilostane added to angiotensin II, FIG. 4, P<0.01
Experimental: […] Real-time RT-PCR was performed using Brilliant SYBR Green QRT-PCR Master Mix Kit, 1-step based on real-time detection of accumulated fluorescence (M×300P, Stratagene, Amsterdam). Results are means, SEM too small to show. **=P<0.01.

[8] = system: circulating adrenal steroids; conditions: patients with normally functioning adrenals; cited from earlier work
[9] = Ang II 10^−7 M + trilostane 10^−5 M
[10] = Ang II 10^−7 M + trilostane 10^−6 M
[11] = Ang II 10^−7 M + trilostane 10^−7 M
[12] = Ang II 10^−7 M + trilostane 10^−8 M
[13] = Ang II 10^−7 M + trilostane 10^−9 M
[14] = trilostane at 10^−6 and 10^−5 M
[15] = trilostane at 10^−9, 10^−8 and 10^−7 M

SMILES: CCCCc1nc(Cl)c(CO)n1Cc1ccc(-c2ccccc2-c2nn[nH]n2)cc1 [Losartan]
- Action on angiotensin II-stimulated cell proliferation (tritiated thymidine uptake) ([1]; Losartan with angiotensin II, absence of trilostane, FIG. 2): significantly eliminated the stimulatory action of angiotensin II
- Cell proliferation (tritiated thymidine uptake) compared with controls ([1]; losartan alone group, FIG. 2): not different from controls

SMILES: COC(=O)[C@@H]1CC2=CC(=O)CC[C@]2(C)[C@@]23O[C@@H]2C[C@@]2(C)[C@@H](CC[C@@]24CCC(=O)O4)[C@H]13 [eplerenone]
- COX-2 expression in the media of coronary arteries (myocardial injury): markedly attenuated
- Myocardial injury (myocardial injury): markedly attenuated
- Osteopontin expression in the media of coronary arteries (myocardial injury): markedly attenuated
- Reduction in cardiomyocyte cross-sectional area ([2]; compared with control): 28%
- Reduction of volume fraction of reactive interstitial fibrosis ([2]; compared with control): 37%
- Reduction of volume fraction of replacement fibrosis ([2]; compared with control): 34%
- LV end-diastolic wall stress ([2]; increased significantly in control dogs): decreased significantly
- End-diastolic volume, end-systolic volume, and EF ([2]; volumes increased significantly in control dogs): remained unchanged

SMILES: CC(=O)S[C@@H]1CC2=CC(=O)CC[C@]2(C)[C@H]2CC[C@@]3(C)[C@@H](CC[C@@]34CCC(=O)O4)[C@H]12 [spironolactone]
- Mortality [3]: significantly reduced mortality

- mRNA transcription of the gene coding for the angiotensin II type 1 receptor (AT1) (AT1 receptor mRNA): reduced even further
SMILES: C[C@]12CC[C@H]3[C@@H](CC[C@@]45O[C@@H]4C(O)=C(C#N)C[C@]35C)[C@@H]1CC[C@@H]2O [trilostane, (4α,5α-17β)-4,5-epoxy-3,17-dihydroxyandrost-2-ene-2carbonitrile]
- Tritiated thymidine uptake [1, 9]: 42.7 dpm
- Tritiated thymidine uptake [1, 10]: 74.9 dpm
- Tritiated thymidine uptake [1, 11]: 89.1 dpm
- Tritiated thymidine uptake [1, 12]: 101.88 dpm
- Tritiated thymidine uptake [1, 13]: 96.7 dpm
- Cell proliferation (tritiated thymidine uptake) ([1]; trilostane additionally present with Losartan, FIG. 2, P<0.05 / P<0.01): decreased cell proliferation still further to less than control values
- Effect on tritium incorporation induced by Ang II [1, 14]: inhibited
- Effect on tritium incorporation induced by Ang II [1, 15]: not at 10^−9, 10^−8 and 10^−7 M
- Cell Count [4, 9]: 14.25 × 10^4
- Cell Count [4, 10]: 14.00 × 10^4
- Cell Count [4, 11]: 20.00 × 10^4
- Cell Count [4, 12]: 21.95 × 10^4
- Cell Count [4, 13]: 21.00 × 10^4
- Effect on Ang II stimulated increase in cell number [4, 14]: inhibited
- Effect on Ang II stimulated increase in cell number [4, 15]: not at 10^−9, 10^−8 and 10^−7 M
- Circulating corticosterone levels ([5]; rats, trilostane 4 mg/kg/day or 8 mg/kg/day): Neither dose (4 mg/kg/day or 8 mg/kg/day) affects circulating corticosterone levels
- Concentrations of aldosterone in circulating plasma ([5]; rats, trilostane 4 mg/kg/day, FIG. 1b): does not reduce concentrations of aldosterone in circulating plasma
- Concentrations of aldosterone in circulating plasma ([5]; whole, healthy rats, trilostane 8 mg/kg/day, FIG. 1a): reduces concentrations of aldosterone in circulating plasma
- Circulating concentrations of corticosterone ([6]; FIG. 3(a)): no significant differences
- Circulating concentrations of aldosterone ([6]; FIG. 3(b)): no significant differences
- Calcium signal response to angiotensin II ([7]; Ang II 10^−6 M): +
- Calcium signal response to angiotensin II ([7]; Ang II 10^−7 M): −
- Calcium signal response to angiotensin II ([7]; Ang II 10^−8 M, control cells (NSMC) +): −
- Calcium signal response to angiotensin II ([7]; Ang II 10^−9 M, control cells (NSMC) −): −
- Calcium signal response to angiotensin II ([7]; Ang II 10^−10 M, control cells (NSMC) −): −
- Calcium signal response to angiotensin II ([7]; Ang II 10^−11 M, control cells (NSMC) −): −
- Dosage level at which circulating adrenal steroids are reduced [8]: 8 to 10 mg/kg/day
